Tests used:
[1] = test system: N13 microglial cells; test: N13 cell viability, ligand pretreatment 60 min then CK cocktail 48 h (CK1δ inhibition protocol); type: cell-based; conditions: for cell vitality: CK cocktail alone 69% ± 0.3 vs. control
[2] = test system: N13 microglial cells; test: N13 cell viability (CellTiter 96 AQueous One, MTS), ligands alone; type: cell-based; conditions: for cell viability: 60 min, alone
Protocol: Starting from these observations, since this double effect could be a suitable strategy for the treatment of chronic neurodegenerative diseases, in which neuroinflammation plays a crucial role, these compounds were tested on an in vitro model of neuroinflammation in comparison with the reference compounds. The experiments were performed using N13 microglial cells. The colorimetric method CellTiter 96® AQueous One Solution Cell Proliferation assay was used to determine the number of live cells in cytotoxicity or proliferation assays. The tetrazole compound MTS was bio-reduced by the cells into formazan, a colored product soluble in the cellular medium. The percentage of cell viability was analyzed through an absorbance reading at 492 nm. The concentrations of ligands were chosen based on the results of binding assays. Specifically, lower, similar, and higher concentrations than the Ki value were used.
Experiments were performed in triplicate.

[3] = target: human recombinant A2AAR; set-up: method as in PMID 37259317; conditions: cited from earlier work; for Ki: [3H]NECA, membranes from CHO cells stably transfected, means ± standard errors, read-out: KiA2A
[4] = test system: CK1δ; set-up: method as in PMID 37259317; conditions: cited from earlier work; for IC50: enzymatic inhibition
[5] = target: human recombinant A1AR; set-up: method as in PMID 37259317; conditions: [3H]CCPA, membranes from CHO cells stably transfected; means ± standard errors; read-out: KiA1; cited from earlier work
[6] = target: human recombinant A3AR; set-up: method as in PMID 37259317; conditions: [3H]HEMADO, membranes from CHO cells stably transfected; means ± standard errors; read-out: KiA3; cited from earlier work
[7] = test system: N13 cell line; test: Griess assay, nitrite production (antioxidant effect); type: cell-based; conditions: compound 2 4500 nM, ZM241385 10 nM
Source text: In addition, since oxidative stress has received extensive attention as one important entry point in the pathogenesis of neurodegenerative diseases, the potential antioxidant profile of compounds 1 and 2 was investigated. Oxidative stress and neuroinflammation play synergistic roles in the promotion of neurodegenerative disease progression. During a CNS insult, there is an activation of microglial cells, which stimulate immune responses to instigate tissue repair. If the triggering cause of the immune response is eradicated, the immune response resolves, but if the initial stress persists, it will lead to an overproduction of neurotoxic factors such as chemokines and proinflammatory cytokines such as Tumor Necrosis Factor-α (TNF-α) and Interleukin-1β (IL-1β). This pathological state will lead to an overproduction of ROS and a state of oxidative stress. High levels of ROS inactivate or damage proteins, leading to cellular degeneration and death. Furthermore, ROS can activate proinflammatory pathways, further promoting a harmful environment for vulnerable neurons. In light of this, the potential antioxidant capacity of compounds was studied. […] The combination of anti-inflammatory and antioxidant activities makes compound 2 particularly appealing in counteracting two of the factors involved in the pathogenesis of neurodegenerative pathologies.
The N13 cell line was introduced into a 96-well UV-VIS transparent plate at a population of 1 × 10^4 cells per well in 98 μL of DMEM and incubated overnight. […] After 24 h of incubation, the media from each well was transferred into another 96-well plate, and then 50 µL of the sulphanilamide solution was placed into the wells. After 10 min of incubation at room temperature (rt), 50 µL of the NED solution was dispensed to all wells, and the plate was incubated at rt for an additional 5–10 min. After half an hour, absorbance was measured in the microplate reader GENiosPro using a 520–550 nm filter. All measurements were reproduced in 3–5 replicates. The nitric oxide formation was investigated by measuring nitrite (NO^2−), which is one of two primary breakdown products of NO. A nitrite standard reference curve was used for quantitative evaluation of the concentration of NO^2− in samples.

[8] = test system: N13 microglial cells; test: N13 cell viability, CK cocktail 48 h pretreatment then ligand (A2AAR antagonist protocol); conditions: 60 min
Protocol: Given the nature of compounds, dual A2A/CK1δ anta-inhibitors, their neuroprotective effect against a neuroinflammatory insult was investigated following two different approaches aimed at studying the antagonist activity on the A2AAR and the inhibitor effect on CK1δ. […] The concentrations used were 35, 65, and 400 µM at 60 min of incubation.
N13 cells were plated in 96-well plates at the confluence of 1 × 10^4 cells/well and incubated overnight. Cells were divided into two groups in order to study the activity of compounds on A2AAR and CK1δ (Scheme 1). […] Cells of the second group were pretreated with 2 µL at different concentrations of understudy ligand, or the reference compound PF670462, for 30 or 60 min and then with further addition of a proinflammatory cocktail of cytokines for 48 h (Scheme 1). After treatment, 20 µL of CellTiter 96® AQueous One Solution Reagent was added to each well to a final volume of 100 µL. After 1 h of incubation, absorbance was measured at 492 nm in the microplate reader GENiosPro. Cell viability was estimated as the relation between the OD of treated cells and the OD of untreated cells in percentage. An untreated control and a control with the solvent were run. Experiments were performed in triplicate.

Nc1nccc(-c2c(-c3ccc(F)cc3)ncn2C2CCCCC2)n1 [PF-670462, reference compound]
cell vitality ([1]; 0.05 µM 60 min before CK cocktail 48 h): 96% ± 3.1
cell vitality ([1]; 0.1 µM 60 min before CK cocktail 48 h): 78% ± 3.5
cell viability ([1]; 1 µM 60 min before CK cocktail 48 h): no significant decrease in cell viability
cell viability ([2]; 0.05 µM): does not affect cell viability
cell viability ([2]; 0.1 µM): 75% ± 1.4
cell viability ([2]; 1 µM): 60% ± 2.9

Nc1nc(Cl)nc2c1nc(-c1ccco1)n2C1CCCC1 [compound 4, 2-chloro-9-cyclopentyl-8-(furan-2-yl)-9H-purin-6-amine]
viability at 25 µM ([1]; N13, 25 µM 60 min before CK cocktail 48 h, CK cocktail alone 78% 1.3 vs. control (Figure 7)): 108%
viability at 50 µM ([1]; N13, 50 µM 60 min before CK cocktail 48 h, CK cocktail alone 78% 1.3 vs. control): 102%
viability at 500 µM ([1]; N13, 500 µM 60 min before CK cocktail 48 h, CK cocktail alone 78% 1.3 vs. control): 90%
Ki [3]: 3480 ± 312 nM
A2AAR antagonism, in words [3]: inactive as an A2AAR antagonist
% Residual Activity at 10 μM ± sd ([4]; 10 μM): 13 ± 24%
% Residual Activity at 40 μM ± sd [4]: 25 ± 9.6%
IC50 [4]: 360 ± 100 nM
Ki [5]: 8660 ± 1520 nM
Ki [6]: 5960 ± 1020 nM

Nc1nc(NCCc2ccc(O)cc2)nc2nc(-c3ccco3)nn12 [ZM241385, reference compound]
compensation of oxidative stress caused by the CK cocktail [7]: successfully compensated
cell viability vs. control ([2]; 0.01 µM, absence of CK cocktail (reference used at 60 min)): 155% ± 1.9

N#CCNc1nc(Cl)nc2c1ncn2C1CCCC1 [compound 3, 2-((2-Chloro-9-cyclopentyl-9H-purin-6-yl)amino)acetonitrile]
cell vitality increase up to ([8]; 400 µM, after CK cocktail (Figure 3)): 93 ± 1.1%
counteraction of CK cocktail effect (cell viability) ([8]; 35, 65 and 400 µM, after CK cocktail): able to counteract the effect of the CK cocktail but to a lesser extent than compound 2
Ki [3]: 7 ± 0.01 nM
% Residual Activity at 40 μM ± sd [4]: 86 ± 1.6%
CK1δ inhibition, in words [4]: inactive as a CK1δ inhibitor
IC50 [4]: > 40000 nM
Ki [5]: 118 ± 10 nM
Ki [6]: 140 ± 35 nM
